Assay results taken from patent US20040209914A1, “Aromatic sulfone hydroxamic acids and their use as protease inhibitors” (priority 2000, published 2004).
Like-named read-outs stand apart in the source and are kept apart here.

Assays:
Experiment in all cases: biochemical
Conditions in all cases: fluorogenic MCA-peptide substrate, pH 7.5, room temperature
[1] = target: T1, Recombinant human MMP-1 (Homo sapiens, UniProt P03956)
T1 construct: made in house; host or cells: transfected HT-1080 cells
T1 sequence (P03956 100-469): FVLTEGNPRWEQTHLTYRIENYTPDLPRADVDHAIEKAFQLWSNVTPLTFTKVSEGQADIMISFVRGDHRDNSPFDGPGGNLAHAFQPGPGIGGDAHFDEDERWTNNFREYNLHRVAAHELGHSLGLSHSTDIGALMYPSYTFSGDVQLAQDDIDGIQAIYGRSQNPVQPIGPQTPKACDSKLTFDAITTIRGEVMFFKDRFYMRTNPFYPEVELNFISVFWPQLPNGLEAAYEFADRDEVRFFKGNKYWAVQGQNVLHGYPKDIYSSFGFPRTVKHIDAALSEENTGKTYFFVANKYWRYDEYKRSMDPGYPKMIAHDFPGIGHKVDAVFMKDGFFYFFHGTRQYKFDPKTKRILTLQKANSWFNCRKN
Method: (§1) Recombinant human MMP-1, MMP-2, MMP-9, MMP-13, and were used in this assay. These enzymes were prepared in the Assignee's es following usual laboratory procedures. Specifics for preparing and e enzymes can be found in the scientific literature describing these See, e.g., Enzyme Nomenclature (Academic Press, San Diego, Calif., d the citations therein).
The MMP-1 was obtained from MMP-1 expressing transfected HT-1080 cells provided by Dr. Harold Welgus of Washington University in St. Louis, Mo. The MMP-1 was activated using 4-aminophenylmercuric acetate (APMA), and then purified over a hydroxamic acid column.
(§2) The enzyme substrate was a methoxycoumarin-containing polypeptide having the following sequence:
(§3) MCA-ProLeuGlyLeuDpaAlaArgNH2
(§4) Here, “MCA” is methoxycoumarin and “Dpa” is 3-(2,4-dinitrophenyl)-L-2,3-diaminopropionyl alanine.
(§5) These solutions were then compared to a control (which contained equal amount of DMSO/buffer solution, but no hydroxamate compound) using Microfluor™ White Plates (Dynatech, Chantilly, Va.). Specifically, The MMPs were activated with APMA or trypsin. […] The control likewise was incubated at room temperature in separate plates with the MMP and 4 uM of the MMP substrate. […] Inhibition was measured as a reduction in fluorescent intensity as a function of inhibitor concentration using a Perkin Elmer (Norwalk, Conn.) L550 plate reader. The IC50's were then calculated from these measurements.

[2] = target: T2, Recombinant human MMP-2 (Homo sapiens, UniProt P08253)
T2 construct: made in house
T2 sequence (P08253 110-660): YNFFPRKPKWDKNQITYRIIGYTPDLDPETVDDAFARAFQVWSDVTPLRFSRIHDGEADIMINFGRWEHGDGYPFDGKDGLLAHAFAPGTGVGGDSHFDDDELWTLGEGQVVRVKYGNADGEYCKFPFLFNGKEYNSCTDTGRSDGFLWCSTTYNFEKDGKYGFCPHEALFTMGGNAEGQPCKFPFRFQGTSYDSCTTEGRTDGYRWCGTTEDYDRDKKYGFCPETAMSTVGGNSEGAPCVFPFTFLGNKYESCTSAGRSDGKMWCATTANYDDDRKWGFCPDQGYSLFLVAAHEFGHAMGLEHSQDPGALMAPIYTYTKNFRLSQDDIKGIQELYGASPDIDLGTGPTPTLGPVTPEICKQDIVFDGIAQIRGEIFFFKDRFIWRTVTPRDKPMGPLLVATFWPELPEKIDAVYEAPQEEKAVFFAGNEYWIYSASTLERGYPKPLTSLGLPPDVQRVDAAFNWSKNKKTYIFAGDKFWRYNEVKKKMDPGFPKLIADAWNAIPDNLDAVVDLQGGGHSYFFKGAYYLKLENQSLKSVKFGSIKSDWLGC
Method: as §1
The MMP-2 was obtained from MMP-2 expressing transfected cells provided by Dr. Gregory Goldberg of Washington University.
as §2, §3, §4, §5

[3] = target: T3, Recombinant human MMP-13 (Homo sapiens, UniProt P45452)
T3 construct: made in house; host or cells: baculovirus / insect cells
Method: as §1
The expressed proenzyme was first purified over a heparin agarose column, and then over a chelating zinc chloride column. The proenzyme was then activated by APMA for use in the assay.
as §2, §3, §4, §5

Structure (SMILES)	IC50 [1]	IC50 ([2]; read-out: MMP-2 IC50)	IC50 ([3]; read-out: MMP-13 IC50)	IC50 ([2]; MMP-2 IC50(nM))	IC50 ([3]; MMP-13 IC50(nM))
C#CCN1CCC(C(=O)NO)(S(=O)(=O)c2ccc(N3CCC(C(=O)c4ccc(OC(C)C)c(C)c4)CC3)cc2)CC1 [Example 162]	> 10000 nM	495 nM	2.7 nM		
COCCN1CCC(C(=O)NO)(S(=O)(=O)c2ccc(N3CCC(C(=O)c4ccc(CC(C)C)cn4)CC3)cc2)CC1 [Example 253]	> 10000 nM	38.7 nM	1.7 nM		
COCCN1CCC(C(=O)NO)(S(=O)(=O)c2ccc(N3CCC(c4ccc(OC)cc4)CC3)cc2)CC1 [Example 267]	> 10000 nM	1.7 nM	0.4 nM		
CC(C)Cc1ccc(C(=O)C2CCN(c3ccc(S(=O)(=O)C4(C(=O)NO)CCOCC4)cc3)CC2)cc1 [Example 377]	> 10000 nM	361 nM	0.4 nM		
Cc1ccc(N2CCN(C(=O)C3CCN(c4ccc(S(=O)(=O)C5(C(=O)NO)CCOCC5)cc4)CC3)CC2)c(C)c1 [Example 9]	> 10000 nM	5600 nM	12.2 nM		
CCN1CCC(C(=O)NO)(S(=O)(=O)c2ccc(N3CCC(C(=O)c4ccc(CC(C)CO)cc4)CC3)cc2)CC1 (stereo not drawn) [Example 235]	> 10000 nM	118 nM	0.8 nM		
COCCN1CCC(C(=O)NO)(S(=O)(=O)c2ccc(N3CCC(C(=O)c4ccc(OC5CCCC5)cc4)CC3)cc2)CC1 [Example 227]	> 10000 nM	132 nM	1.4 nM		
Cc1ccc(C(=O)C2CCN(c3ccc(S(=O)(=O)C4(C(=O)NO)CCN(S(C)(=O)=O)CC4)cc3)CC2)cc1C [Example 164]	> 10000 nM	942 nM	5.4 nM		
CCN1CCC(C(=O)NO)(S(=O)(=O)c2ccc(N3CCC(C(=O)c4ccc(CCCC(C)O)cc4)CC3)cc2)CC1 (stereo not drawn) [Example 247]	> 10000 nM	111 nM	0.3 nM		
COCCN1CCC(C(=O)NO)(S(=O)(=O)c2ccc(N3CCC(C(=O)c4ccc(CC(C)C)cc4)CC3)cc2)CC1 [Example 218]	> 10000 nM	75.7 nM	0.2 nM		
CCN1CCC(C(=O)NO)(S(=O)(=O)c2ccc(N3CCC(C(=O)c4ccc(CCC(C)O)cc4)CC3)cc2)CC1 (stereo not drawn) [Example 248]	> 10000 nM	141 nM	0.6 nM		
COCCN1CCC(C(=O)NO)(S(=O)(=O)c2ccc(N3CCC(C(=O)c4ccc(Cl)cc4)CC3)cc2)CC1 [Example 119]	> 10000 nM	200 nM	1 nM		
CC(C)COc1ccc(C(=O)C2CCN(c3ccc(S(=O)(=O)C4(C(=O)NO)CCN(C5CC5)CC4)cc3)CC2)cc1 [Example 216]	> 10000 nM	46.4 nM	1.5 nM		
O=C(C1CCN(c2ccc(S(=O)(=O)C3(C(=O)NO)CCOCC3)cc2)CC1)N1CCN(c2ccc(C(F)(F)F)cc2)CC1 [Example 33]	67.4 nM				
CC(C)N1CCN(C(=O)C2CCN(c3ccc(S(=O)(=O)C4(C(=O)NO)CCOCC4)cc3)CC2)CC1 [Example 15]	> 10000 nM	5500 nM	28 nM		
CCC(C)Cc1ccc(C(=O)C2CCN(c3ccc(S(=O)(=O)C4(C(=O)NO)CCN(C5CC5)CC4)cc3)CC2)cc1 (stereo not drawn) [Example 200]	> 10000 nM	1400 nM	0.5 nM		

Structure (SMILES)	IC50 [1]	IC50 ([2]; read-out: MMP-2 IC50)	IC50 ([3]; read-out: MMP-13 IC50)	IC50 ([2]; MMP-2 IC50(nM))	IC50 ([3]; MMP-13 IC50(nM))
O=C(C1CCN(c2ccc(S(=O)(=O)C3(C(=O)NO)CCOCC3)cc2)CC1)N1CCN(c2ncccn2)CC1 [Example 23]	> 10000 nM			1600 nM	6.4 nM
Cc1ccc(C2CCN(c3ccc(S(=O)(=O)C4(C(=O)NO)CCN(C5CC5)CC4)cc3)CC2)cc1 [Example 272]	> 10000 nM	5.9 nM	1.3 nM		
COCCN1CCC(C(=O)NO)(S(=O)(=O)c2ccc(N3CCC(C(=O)c4cccc(Cl)c4)CC3)cc2)CC1 [Example 186]	> 10000 nM	94.4 nM	3.5 nM		
O=C(c1ccc(Cl)cc1)C1CCN(c2ccc(S(=O)(=O)C3(C(=O)NO)CCN(C4CC4)CC3)cc2)CC1 [Example 213]	> 10000 nM	25.8 nM	0.5 nM		
C#CCN1CCC(C(=O)NO)(S(=O)(=O)c2ccc(N3CCC(C(=O)c4cccc(C)c4)CC3)cc2)CC1 [Example 154]	> 10000 nM	176 nM	2.4 nM		
C=CCN1CCC(C(=O)NO)(S(=O)(=O)c2ccc(N3CCC(C(=O)c4ccc(N(C)CC)cc4)CC3)cc2)CC1 [Example 181]	> 10000 nM	936 nM	2.3 nM		
O=C(NO)C1(S(=O)(=O)c2ccc(N3CCC(c4ccc(Cl)cc4)CC3)cc2)CCN(CC2CC2)CC1 [Example 274]	> 10000 nM		2.1 nM		
O=C(NO)C1(S(=O)(=O)c2ccc(N3CCC(N4CCc5ccccc54)CC3)cc2)CCOCC1 [Example 383]		382 nM	36.9 nM		
O=C(NO)C1(S(=O)(=O)c2ccc(N3CCC(SCc4cccc(C(F)(F)F)c4)CC3)cc2)CCN(C2CC2)CC1 [Example 149]		210 nM	16.9 nM		
C[C@@H]1CN(C(=O)C2CCN(c3ccc(S(=O)(=O)C4(C(=O)NO)CCOCC4)cc3)CC2)C[C@H](C)O1 [Example 30]		> 10000 nM	18.1 nM		
O=C(NO)C1(S(=O)(=O)c2ccc(N3CCC(SCc4ccc(OC(F)(F)F)cc4)CC3)cc2)CCN(C2CC2)CC1 [Example 143]		100 nM	2.1 nM		
CN(C)Cc1ccc(C(=O)C2CCN(c3ccc(S(=O)(=O)C4(C(=O)NO)CCOCC4)cc3)CC2)cc1 [Example 384]		52.9 nM	2.9 nM		
COCCN1CCC(C(=O)NO)(S(=O)(=O)c2ccc(N3CCC(C(=O)c4ccc(COC)s4)CC3)cc2)CC1 [Example 252]		14.3 nM	0.4 nM		
O=C(c1ccc(CN2CCCC2)cc1)C1CCN(c2ccc(S(=O)(=O)C3(C(=O)NO)CCOCC3)cc2)CC1 [Example 385]		34.6 nM	3.2 nM		
COCCN1CCC(C(=O)NO)(S(=O)(=O)c2ccc(N3CCC(c4ccc(C)cc4)CC3)cc2)CC1 [Example 269]	> 10000 nM		1.4 nM		
O=C(Cc1ccccc1)C1CCN(c2ccc(S(=O)(=O)C3(C(=O)NO)CCOCC3)cc2)CC1 [Example 386]		1900 nM	15.2 nM		
